One assay concerns dopaminergic neurons. Description: Rat model of Parkinson's disease (6-OHDA), immunohistochemistry with anti-TH antibody. It counts as in vivo. Particulars: Wistar rats, 300 mg/kg per day in diet, 6-OHDA lesion; versus rats fed a normal diet. On the procedure: (§1) Adult male Wistar rats (280-300 g) were maintained on a 12-hour light/dark cycle at a constant temperature of 20±3° C. Animals had access to food and water ad libitum and weight gain was recorded.
(§2) Animals were fed a normal diet or a diet supplemented with the inventive compounds (300 mg/kg per day) for 7 days before induction of the dopaminergic lesion and for 15 days after induction of same.
(§3) Seven days after commencement of treatment with the inventive compounds, the rats were stereotactically injected with 6-OHDA (4 μg for 8 min) or buffer (sham rats) in the left part of the median tract of the telencephalon to induce striatonigral denervation.
Tyrosine hydroxylase (TH) is an enzyme which catalyzes the transformation of tyrosine to […]. It is used to label dopaminergic neurons. After the apomorphine sensitization test, the animals were sacrificed and the brains were removed. Brain slices were incubated with anti-TH antibody (SCBT, Santa Cruz, Calif.) and then with a second biotinylated antibody. Visualization was with the ABC staining system kit (Tebu) according to the supplier's instructions.
Viable cells labelled with anti-TH antibody (TH+ cells) were counted. […]

The nature of assay [1]: Plasma lipids in Sprague Dawley rats according to the formulation used. It counts as in vivo, rat. To be noted: gavage every day for 15 days, with Cremophor RH40 compared with CMC and Solutol HS15. How it is done:
A 0.5% (mN) solution of CMC was prepared in water and mixed with 0.1% (VN) Tween 80, then stirred overnight. The inventive compounds were then added and dissolved by stirring and ultrasonication for 30 minutes at 60° C.
The emulsion comprising an inventive compound and a surfactant, Cremophor® RH40 (Polyoxyl 40 Hydrogenated Castor Oil) or Solutol® HS15 (polyethylene glycol 660 12-hydroxystearate) was prepared as follows: the inventive compound was dissolved in a solution of Cremophor® RH40 or Solutol® HS15 previously heated in a water-bath at 60° C. in a ratio for example of 6:1 (m/m). The mixture was placed in a water-bath at 60° C. until a homogeneous mixture was obtained. Said mixture was then dispersed by ultrasonication for 20 minutes at 60° C., at which time the solution became translucid. While stirring, water (MilliQ) preheated at 60° C. was added to the solution to give the desired concentration of the compound. The solution was then mixed on a Vortex® mixer, returned to the water-bath (60° C.) and optionally dispersed by ultrasonication for 30 minutes.
To this end, the compounds were administered by gavage to Sprague Dawley rats every day for 15 days. […]

Another assay relates to LDL. The experiment in a line: LDL oxidation by copper, conjugated diene formation (OD 234 nm). It counts as biochemical. Particulars: 10^−4 M. On the procedure: Oxidation of LDL is an important modification which plays a major role in the onset and development of atherosclerosis (Jurgens, Hoff et al. 1987). […] Unless otherwise indicated, all reagents were from Sigma (St Quentin, France).
LDL were prepared as described by Lebeau et al. (Lebeau, Furman et al. 2000). The solutions of the test compounds were prepared at 10^−2 M in ethanol and diluted in PBS so that the final concentration ranged from 0.1 to 100 μM with a total ethanol concentration of 1% (VN).
Before oxidation, EDTA was removed from the LDL preparation by dialysis. The oxidation reaction was then carried out at 30° C. by adding 100 μl of 16.6 μM CuSO4 to 800 μl of LDL (125 μg protein/ml) and 100 μl of a test compound solution. The formation of dienes, the species to be followed, was measured by the optical density at 234 nm in the samples treated with the compounds in the presence or absence of copper. Optical density at 234 nm was measured every 10 minutes for 8 hours on a thermostated spectrophotometer (Kontron Uvikon 930). The analyses were carried out in triplicate. A compound was considered to have antioxidant activity when it shifted the lag phase latency relative to the control sample. […] FIG. 4 presents an example of the results obtained with the inventive compounds.

Assay [2] concerns 6-OHDA-induced dopaminergic lesion. Description: Rat model of Parkinson's disease (6-OHDA), behavioral sensitization to apomorphine. It counts as in vivo. To be noted: Wistar rats, 300 mg/kg per day in diet, 7 days before and 15 days after 6-OHDA lesion. How it is done:
as §1, §2
6-hydroxydopamine (6-OHDA) is a neurotoxin taken up by dopaminergic neurons via a dopamine transporter. Injection of said compound into striatonigral projections induces selective destruction of dopaminergic neurons, and has allowed the development of many animal models of Parkinson's disease (Bordet et al., 2000).
as §3
Apomorphine is a dopaminergic agonist which stimulates D1 and D2 receptors. The intensity of rotational behavior is an index allowing to measure the severity of the striatonigral lesion. At the end of the treatment, rats received an intraperitoneal injection of apomorphine and rotational behavior was evaluated 15 minutes after sensitization and for a 10 minute period.

The text below walks through data of patent US20060154984A1, “Therapeutic use of acyl glycerols and the nitrogen- and sulphur- containing analogues thereof” (priority 2003, published 2006).

Regarding `CCCCCCCCCCCCCCSCC(=O)OCC(COC(=O)CSCCCCCCCCCCCCCC)OC(=O)CSCCCCCCCCCCCCCC` [Ex 4a, 1,2,3-tritetradecylthioacetylglycerol], the “number of neurons labelled with anti-tyrosine hydroxylase (TH+ neurons)” value in the assay on dopaminergic neurons was “greater number of neurons”. Moreover, in assay [1], the plasma triglycerides entry is “larger decrease” and the total plasma cholesterol result is listed as “larger decrease”. Further, in the assay with LDL (copper alone 3 nmol/min/mg of LDL), the “LDL oxidation rate (rate of conjugated diene formation)” value is given as 1 nmol/min/mg of LDL. In the assay with LDL (copper alone 496 nmol per mg of LDL), the “decrease in the maximum amount of conjugated dienes formed” value was determined as 60%. For the same compound, the “lag phase for conjugated diene formation” value in the assay with LDL (copper alone 104 minutes) was 270 min. Besides, in the assay on LDL (relative to copper alone), the “decrease in the oxidation rate” value came out at 66% and the “increase in the lag phase” value is on record as 160%. In addition, the “number of apomorphine-induced rotations” value in assay [2] was “prophylactic and curative properties”.
